One experiment concerns the target T1, p110α (Homo sapiens, UniProt P42336).
T1 construct: His-tag; made in house; host or cells: Sf9 insect cells (baculovirus)
Kind of experiment: Biochemical PI3K inhibition assay, p110α. The note with it: for IC50: 10 μM ATP, two hours; for effect of substitution on PI3Kα potency/selectivity (in words): SAR discussion. How it is done:
PIK3CD was generously provided by Novartis Pharmaceuticals. […] Sf9 cells were lysed in a buffer containing 50 mM sodium phosphate, pH 8.0, 400 mM NaCl, 5% glycerol, 1% Triton X-100, 10 mM 2-mercaptoethanol, 1 mM orthovanadate, 10 mM imidazole, and sonicated on ice for 1 minute. Proteins were purified by adding Ni-NTA Superflow beads (Qiagen, Valencia, CA, USA) to the lysate and subsequent rolling for 30 min at 4°C. Beads were washed twice with 50 mM phosphate buffer, pH 8.0, 0.5 M NaCl, 50 mM Imidazole, 2 mM DTT and eluted in the same buffer but with 200 mM imidazole. Purified PI3K's were mixed 1:1 with glycerol and stored at -20°C.
J-series inhibitors were dissolved, serial diluted in DMSO and deposited into 96 well plates at a final DMSO concentration of 1%. We used a novel assay to determine their potency and selectivity. […] Reactions were timed after the addition of 10 μM ATP with 40 μCi/ml γ-32P-ATP (PerkinElmer, Waltham, MA, USA) and 2 mM MgCl2 (all final concentrations). The reactions were terminated after two hours by the addition of 2 N HCl and the lipids extracted with 1:1 MetOH/Chloroform. Radio-labeled phosphatidyl-inositol-3-phosphate in the extracted organic fraction was quantified after the addition of Microscint O (PerkinElmer) using a TopCount 96 well plate scintillation counter (PerkinElmer). IC50 concentrations and inhibition curves were calculated using Prism 5 (GraphPad Software, La Jolla, CA).

The target in another experiment is T2, p110β (Homo sapiens, UniProt P42338).
T2 construct: His-tag; made in house; host or cells: Sf9 insect cells (baculovirus)
T2 sequence (P42338 whole entry): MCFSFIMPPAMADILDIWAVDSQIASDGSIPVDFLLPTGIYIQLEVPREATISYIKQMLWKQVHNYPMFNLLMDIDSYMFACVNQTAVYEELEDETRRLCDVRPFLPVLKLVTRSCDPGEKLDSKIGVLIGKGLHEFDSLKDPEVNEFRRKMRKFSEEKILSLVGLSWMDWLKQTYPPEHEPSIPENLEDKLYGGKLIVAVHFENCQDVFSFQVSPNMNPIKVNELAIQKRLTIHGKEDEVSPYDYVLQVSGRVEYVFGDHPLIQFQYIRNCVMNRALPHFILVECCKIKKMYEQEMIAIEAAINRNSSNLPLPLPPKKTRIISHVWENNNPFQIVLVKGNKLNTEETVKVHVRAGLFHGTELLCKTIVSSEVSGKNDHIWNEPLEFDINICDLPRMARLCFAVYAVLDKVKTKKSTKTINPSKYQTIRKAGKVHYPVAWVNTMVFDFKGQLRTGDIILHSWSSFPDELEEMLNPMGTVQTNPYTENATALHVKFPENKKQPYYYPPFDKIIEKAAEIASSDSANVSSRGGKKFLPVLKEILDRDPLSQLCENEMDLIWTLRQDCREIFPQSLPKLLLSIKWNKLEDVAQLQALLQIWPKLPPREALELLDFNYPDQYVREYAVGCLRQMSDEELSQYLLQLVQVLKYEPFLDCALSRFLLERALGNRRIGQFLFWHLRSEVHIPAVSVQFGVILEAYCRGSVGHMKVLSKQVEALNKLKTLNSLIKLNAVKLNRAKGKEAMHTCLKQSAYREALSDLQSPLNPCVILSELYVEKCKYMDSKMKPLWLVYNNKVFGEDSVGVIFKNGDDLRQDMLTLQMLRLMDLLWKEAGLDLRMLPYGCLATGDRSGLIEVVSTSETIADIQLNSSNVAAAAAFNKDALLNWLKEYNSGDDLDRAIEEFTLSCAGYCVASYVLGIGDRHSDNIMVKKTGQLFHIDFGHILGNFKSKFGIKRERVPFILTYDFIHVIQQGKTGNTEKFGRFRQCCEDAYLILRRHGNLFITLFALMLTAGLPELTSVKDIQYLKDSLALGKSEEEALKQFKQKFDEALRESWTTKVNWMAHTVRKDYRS
T2 sequence (P27986 322-600 partner limits assumed): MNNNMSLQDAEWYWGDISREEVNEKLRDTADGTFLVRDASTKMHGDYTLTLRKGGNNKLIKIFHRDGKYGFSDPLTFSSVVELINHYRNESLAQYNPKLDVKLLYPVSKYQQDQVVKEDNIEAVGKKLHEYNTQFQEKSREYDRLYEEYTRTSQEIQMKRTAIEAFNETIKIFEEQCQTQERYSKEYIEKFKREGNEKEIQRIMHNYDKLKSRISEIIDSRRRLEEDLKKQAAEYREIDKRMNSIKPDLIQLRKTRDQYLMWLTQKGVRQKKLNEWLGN
The experiment can be described thus: Biochemical PI3K inhibition assay, p110β. The note with it: for IC50: 10 μM ATP, two hours. An excerpt: (§1) cDNA clones of PIK3CA, PIK3CB and PIK3CG were obtained from Origene (Rockville, MD, USA). PIK3CD was generously provided by Novartis Pharmaceuticals. The cDNA clones were sub-cloned into pFastBac His-Tag (Invitrogen, Carlsbad, CA, USA) and baculovirus clones were generated by the Bac-to-Bac expression system (Invitrogen). p110α, p110β and p110δ were co-expressed in Sf9 insect cells (Invitrogen) with a nSH2-iSH2 fragment of the regulatory subunit p85 comprising AA residues 322 to 600 [4]. p110γ was expressed without a regulatory subunit. Sf9 cells were lysed in a buffer containing 50 mM sodium phosphate, pH 8.0, 400 mM NaCl, 5% glycerol, 1% Triton X-100, 10 mM 2-mercaptoethanol, 1 mM orthovanadate, 10 mM imidazole, and sonicated on ice for 1 minute. Proteins were purified by adding Ni-NTA Superflow beads (Qiagen, Valencia, CA, USA) to the lysate and subsequent rolling for 30 min at 4°C. Beads were washed twice with 50 mM phosphate buffer, pH 8.0, 0.5 M NaCl, 50 mM Imidazole, 2 mM DTT and eluted in the same buffer but with 200 mM imidazole. Purified PI3K's were mixed 1:1 with glycerol and stored at -20°C.
(§2) J-series inhibitors were dissolved, serial diluted in DMSO and deposited into 96 well plates at a final DMSO concentration of 1%. We used a novel assay to determine their potency and selectivity. In brief, micelles of 2.5 μg L-a-Phosphatidylinositol and 2.5 μg 1,2-Diacyl-sn-glycero-3-phospho-L-serine were formed by sonication, mixed with the individual PI3K isoforms and added to the drug dilutions in a reaction buffer containing 10 mM HEPES, 25 mM NaCl, 0.125 μg/μl BSA, and 2 mM BME (final concentrations). Reactions were timed after the addition of 10 μM ATP with 40 μCi/ml γ-32P-ATP (PerkinElmer, Waltham, MA, USA) and 2 mM MgCl2 (all final concentrations). The reactions were terminated after two hours by the addition of 2 N HCl and the lipids extracted with 1:1 MetOH/Chloroform. Radio-labeled phosphatidyl-inositol-3-phosphate in the extracted organic fraction was quantified after the addition of Microscint O (PerkinElmer) using a TopCount 96 well plate scintillation counter (PerkinElmer). IC50 concentrations and inhibition curves were calculated using Prism 5 (GraphPad Software, La Jolla, CA).

The next experiment has as its target T3, p110γ (Homo sapiens, UniProt P48736).
T3 construct: His-tag; made in house; host or cells: Sf9 insect cells (baculovirus)
The experiment can be described thus: Biochemical PI3K inhibition assay, p110γ. The conditions noted are these: for IC50: 10 μM ATP, two hours, no regulatory subunit.
Description: as §1, §2

A further experiment has as its target T4, p110δ (Homo sapiens, UniProt O00329).
T4 construct: His-tag; made in house; host or cells: Sf9 insect cells (baculovirus)
The experiment can be described thus: Biochemical PI3K inhibition assay, p110δ. The note with it: for IC50: 10 μM ATP, two hours.
Description: as §1, §2

Usually IC50 stands for the midpoint of a concentration-inhibition curve.

Where a name gives a salt, the structure may show the parent alone.

T4 sequence (O00329 whole entry): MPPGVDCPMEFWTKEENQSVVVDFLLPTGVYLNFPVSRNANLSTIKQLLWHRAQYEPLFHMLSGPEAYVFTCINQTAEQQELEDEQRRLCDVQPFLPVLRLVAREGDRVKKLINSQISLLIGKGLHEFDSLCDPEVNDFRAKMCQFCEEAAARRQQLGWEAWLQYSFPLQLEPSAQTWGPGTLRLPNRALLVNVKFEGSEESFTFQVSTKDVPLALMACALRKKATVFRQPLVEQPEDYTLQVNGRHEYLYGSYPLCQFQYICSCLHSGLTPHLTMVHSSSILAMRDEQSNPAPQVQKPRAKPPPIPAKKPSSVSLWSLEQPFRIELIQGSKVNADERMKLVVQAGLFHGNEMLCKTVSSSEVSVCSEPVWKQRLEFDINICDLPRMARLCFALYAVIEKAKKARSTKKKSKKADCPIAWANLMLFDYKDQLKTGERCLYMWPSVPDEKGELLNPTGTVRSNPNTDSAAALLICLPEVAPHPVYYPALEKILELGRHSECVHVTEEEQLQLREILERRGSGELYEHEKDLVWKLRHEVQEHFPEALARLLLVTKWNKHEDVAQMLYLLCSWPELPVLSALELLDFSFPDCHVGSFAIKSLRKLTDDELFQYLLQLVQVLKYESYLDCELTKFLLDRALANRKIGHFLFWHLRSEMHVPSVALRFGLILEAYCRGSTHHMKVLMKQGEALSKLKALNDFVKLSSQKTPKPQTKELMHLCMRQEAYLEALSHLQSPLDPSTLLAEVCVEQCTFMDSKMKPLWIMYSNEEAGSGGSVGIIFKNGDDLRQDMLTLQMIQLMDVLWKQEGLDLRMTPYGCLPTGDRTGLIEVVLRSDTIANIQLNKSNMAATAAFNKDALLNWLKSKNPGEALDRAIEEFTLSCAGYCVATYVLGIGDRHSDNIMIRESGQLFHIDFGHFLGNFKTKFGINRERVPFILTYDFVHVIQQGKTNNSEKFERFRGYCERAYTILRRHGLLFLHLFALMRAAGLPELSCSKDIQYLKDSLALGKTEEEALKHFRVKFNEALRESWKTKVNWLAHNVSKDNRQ
T4 sequence (P27986 322-600 partner limits assumed): as the sequence (P27986 322-600 partner limits assumed) above
T3 sequence (P48736 whole entry): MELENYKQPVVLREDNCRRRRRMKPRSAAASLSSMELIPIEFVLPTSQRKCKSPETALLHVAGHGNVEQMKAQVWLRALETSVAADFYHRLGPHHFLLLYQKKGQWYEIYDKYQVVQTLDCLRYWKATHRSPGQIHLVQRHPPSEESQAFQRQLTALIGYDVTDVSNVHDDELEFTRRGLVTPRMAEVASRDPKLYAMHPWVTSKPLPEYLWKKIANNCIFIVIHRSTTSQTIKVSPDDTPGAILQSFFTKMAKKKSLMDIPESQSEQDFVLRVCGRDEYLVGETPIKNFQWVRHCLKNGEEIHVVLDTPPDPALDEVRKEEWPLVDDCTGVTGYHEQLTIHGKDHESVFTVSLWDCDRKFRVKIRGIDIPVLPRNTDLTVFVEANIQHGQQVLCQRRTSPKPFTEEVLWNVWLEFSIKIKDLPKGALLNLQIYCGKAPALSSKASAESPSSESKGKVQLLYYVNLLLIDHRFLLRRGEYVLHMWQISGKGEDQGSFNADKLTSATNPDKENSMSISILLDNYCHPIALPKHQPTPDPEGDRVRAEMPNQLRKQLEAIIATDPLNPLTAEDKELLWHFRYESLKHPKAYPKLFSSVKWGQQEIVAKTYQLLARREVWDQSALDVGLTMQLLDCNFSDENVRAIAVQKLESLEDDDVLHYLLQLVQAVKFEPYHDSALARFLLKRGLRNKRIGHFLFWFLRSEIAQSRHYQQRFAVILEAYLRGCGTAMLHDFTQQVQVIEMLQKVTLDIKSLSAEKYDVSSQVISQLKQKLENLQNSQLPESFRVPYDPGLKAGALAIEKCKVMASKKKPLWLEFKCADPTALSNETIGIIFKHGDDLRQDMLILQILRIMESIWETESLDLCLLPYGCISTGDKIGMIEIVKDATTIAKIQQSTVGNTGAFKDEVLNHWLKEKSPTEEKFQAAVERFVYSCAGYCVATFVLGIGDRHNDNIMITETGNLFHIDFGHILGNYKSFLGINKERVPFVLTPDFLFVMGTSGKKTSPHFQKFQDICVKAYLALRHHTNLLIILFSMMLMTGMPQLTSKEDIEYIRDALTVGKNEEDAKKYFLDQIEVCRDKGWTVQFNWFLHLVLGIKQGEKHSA
T1 sequence (P42336 whole entry): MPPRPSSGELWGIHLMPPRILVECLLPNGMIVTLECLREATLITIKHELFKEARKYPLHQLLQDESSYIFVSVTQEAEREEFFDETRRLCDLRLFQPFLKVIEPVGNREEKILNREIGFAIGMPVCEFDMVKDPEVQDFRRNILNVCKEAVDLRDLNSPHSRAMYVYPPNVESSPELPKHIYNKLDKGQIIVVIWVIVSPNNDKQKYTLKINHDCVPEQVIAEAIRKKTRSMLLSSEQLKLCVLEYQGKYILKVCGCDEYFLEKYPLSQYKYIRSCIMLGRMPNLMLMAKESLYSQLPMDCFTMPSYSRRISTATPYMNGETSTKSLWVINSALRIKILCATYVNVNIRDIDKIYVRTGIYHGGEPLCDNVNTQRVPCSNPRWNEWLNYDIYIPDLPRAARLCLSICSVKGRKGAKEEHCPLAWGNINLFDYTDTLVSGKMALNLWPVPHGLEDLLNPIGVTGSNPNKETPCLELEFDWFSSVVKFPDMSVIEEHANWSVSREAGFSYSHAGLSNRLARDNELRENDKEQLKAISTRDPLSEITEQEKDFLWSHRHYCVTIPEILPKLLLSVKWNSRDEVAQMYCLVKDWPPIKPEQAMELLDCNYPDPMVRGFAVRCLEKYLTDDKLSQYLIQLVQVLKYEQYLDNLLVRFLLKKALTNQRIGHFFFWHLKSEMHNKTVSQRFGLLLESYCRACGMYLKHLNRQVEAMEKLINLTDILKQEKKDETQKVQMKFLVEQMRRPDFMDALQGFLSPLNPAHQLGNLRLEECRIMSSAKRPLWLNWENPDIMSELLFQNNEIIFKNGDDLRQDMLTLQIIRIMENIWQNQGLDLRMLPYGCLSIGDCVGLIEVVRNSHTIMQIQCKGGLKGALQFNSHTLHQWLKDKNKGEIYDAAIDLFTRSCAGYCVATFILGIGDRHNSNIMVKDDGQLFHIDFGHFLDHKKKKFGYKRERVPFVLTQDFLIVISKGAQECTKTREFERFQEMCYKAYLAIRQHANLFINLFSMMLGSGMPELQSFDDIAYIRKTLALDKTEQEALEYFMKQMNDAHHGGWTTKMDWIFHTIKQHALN
T1 sequence (P27986 322-600 partner limits assumed): as the sequence (P27986 322-600 partner limits assumed) above

Regarding `Cc1ccc([N+](=O)[O-])cc1S(=O)(=O)N(/N=C/c1cnc2ccc(Br)cn12)C(C)C` [J55], the IC50 against p110α came out at 93 nM; against p110β it was 2420 nM; against p110γ it was 3340 nM; against p110δ it was 760 nM. The “drop/decrease in inhibitory activity for PI3Kα” value at p110α (compared to J32) was in the range of 6 to 49 fold.
Regarding `CCN(/N=C/c1cnc2ccc(Br)cn12)S(=O)(=O)c1cc([N+](=O)[O-])c(NCCO)cc1C` [J162], the 50% inhibitory concentration (IC50) against p110α was 25 nM; on p110β, 2400 nM; against p110γ it was 210 nM; against p110δ, 400 nM. Besides, at p110α, the “effect of substitution on PI3Kα potency/selectivity (in words)” value is “did not impact the inhibitory activity for PI3Kα substantially”.
With `Cc1ccc([N+](=O)[O-])cc1S(=O)(=O)N(Cc1ccccc1)/N=C/c1cnc2ccc(Br)cn12` [J30], the half-maximal inhibitory concentration (IC50) at p110α turned out to be 730 nM; on p110β it was 6310 nM; against p110γ, 3160 nM; on p110δ, 781 nM. Further, at p110α (compared to J32), the “drop/decrease in inhibitory activity for PI3Kα” value is given as 6 to 49 fold.
For `CCN(/N=C/c1cnc2ccc(Br)cn12)S(=O)(=O)c1cc([N+](=O)[O-])c(NCC(=O)O)cc1C` [J159], the IC50 against p110α was determined as 4 nM; at p110β, 1880 nM; at p110γ it was 32 nM; against p110δ it was 348 nM. Besides, the “increase of inhibitory activity for PI3Kα” value on p110α (compared to J32) is reported as 3.8 fold.
Consider `CCN(/N=C/c1cnc2ccc(Br)cn12)S(=O)(=O)c1cc([N+](=O)[O-])c(NCC(=O)NC(Cc2ccccc2)C(=O)O)cc1C` (stereo not drawn) [J171], for which the 50% inhibitory concentration (IC50) at p110α turned out to be 19 nM; at p110β, 12800 nM; at p110γ it was 1150 nM; on p110δ it was 1960 nM. Further, the “effect of substitution on PI3Kα potency/selectivity (in words)” value at p110α is “retained nanomolar potencies”. Besides, on p110β (relative to PI3Kα), the “selectivity against PI3Kβ” value is listed as ~ 670 fold. Moreover, the “selectivity against PI3Kγ” value on p110γ (relative to PI3Kα) is listed as 60 fold. Moreover, at p110δ (relative to PI3Kα), the “selectivity against PI3Kδ” value came out at 100 fold.
For `CCN(/N=C/c1cnc2ccc(Br)cn12)S(=O)(=O)c1cccc([N+](=O)[O-])c1` [J37], the IC50 at p110α was 55 nM; against p110β it was 3060 nM; against p110γ, 801 nM; at p110δ, 476 nM. The “drop/decrease in inhibitory activity for PI3Kα” value at p110α (compared to J32) is given as “greater than 3.6 fold”.
Turning to `CCN(/N=C/c1cnc2ccc(Br)cn12)S(=O)(=O)c1cc([N+](=O)[O-])c(NCC(N)=O)cc1C` [J163], the half-inhibitory concentration (IC50) stood at 14 nM against p110α, 2100 nM at p110β, 74 nM against p110γ and 130 nM at p110δ. Moreover, the “effect of substitution on PI3Kα potency/selectivity (in words)” value on p110α was “did not impact the inhibitory activity for PI3Kα substantially”.
Take `CCN(/N=C/c1cnc2ccc(Br)cn12)S(=O)(=O)c1cc([N+](=O)[O-])ccc1Cl` [J101]: the IC50 against p110α turned out to be 22 nM; on p110β, 936 nM; at p110γ, 812 nM; at p110δ, 266 nM. In addition, the “effect of substitution on PI3Kα potency/selectivity (in words)” value on p110α is “maintain potency and isoform selectivity”.
Take `CCN(/N=C/c1cnc2ccc(Br)cn12)S(=O)(=O)c1cc([N+](=O)[O-])c(NCCOC)cc1C` [J157]: the 50% inhibitory concentration (IC50) at p110α was 24 nM; on p110β, 3000 nM; against p110γ, 1000 nM; against p110δ, 430 nM. On p110α, the “effect of substitution on PI3Kα potency/selectivity (in words)” value is “did not impact the inhibitory activity for PI3Kα substantially”.
Take `CCN(/N=C/c1cnc2ccc(Br)cn12)S(=O)(=O)c1cc(C(N)=O)ccc1Cl` [J125]: the IC50 turned out to be 76 nM on p110α, 600 nM at p110β, 1000 nM on p110γ and 38 nM at p110δ. For the same compound, on p110α, the “effect of substitution on PI3Kα potency/selectivity (in words)” value was “impaired potency”.
For `CCN(/N=C/c1cnc2ccc(Br)cn12)S(=O)(=O)c1cc([N+](=O)[O-])c(F)cc1C` [J120], in that order: 24 nM, 1900 nM, 1800 nM, 470 nM and “did not impact the inhibitory activity for PI3Kα substantially”.
The matching figures for `Cc1ccc([N+](=O)[O-])cc1S(=O)(=O)N(CCC#N)/N=C/c1cnc2ccc(Br)cn12` [J47]: 25 nM, 149 nM, 192 nM, 169 nM and “did not increase potency”.
For `CCN(/N=C/c1cnc2ccc(Br)cn12)C(=O)c1cc([N+](=O)[O-])ccc1C` [J45], in that order: 20 nM, 75 nM, 132 nM, 16 nM and “decreased selectivity for the latter”.
Consider `CCOC(=O)CN(/N=C/c1cnc2ccc(Br)cn12)S(=O)(=O)c1cc([N+](=O)[O-])ccc1C` [J43], for which the concentration for half-maximal inhibition (IC50) against p110α stood at 154 nM; on p110β, 1900 nM; against p110γ, 930 nM; on p110δ it was 363 nM. At p110α, the “effect of substitution on PI3Kα potency/selectivity (in words)” value is reported as “did not increase potency”.
Regarding `Cc1ccc([N+](=O)[O-])cc1S(=O)(=O)N(CC(C)C)/N=C/c1cnc2ccc(Br)cn12` [J46], the half-maximal inhibitory concentration (IC50) against p110α was found to be 309 nM; at p110β it was 2970 nM; against p110γ, 1750 nM; at p110δ it was 485 nM. The “drop/decrease in inhibitory activity for PI3Kα” value at p110α (compared to J32) lay in the range of 6 to 49 fold.
`CCN(/N=C/c1cnc2ccc(Br)cn12)S(=O)(=O)c1cc([N+](=O)[O-])c(NCC(=O)OC)cc1C` [J161]: the IC50 at p110α was determined as 33 nM; against p110γ it was 940 nM; at p110δ, 16000 nM. Further, the “effect of substitution on PI3Kα potency/selectivity (in words)” value on p110α was “did not impact the inhibitory activity for PI3Kα substantially”.
In the case of `CCN(/N=C/c1cnc2ccc(Br)cn12)S(=O)(=O)c1cc(N)ccc1C` [J44], the 50% inhibitory concentration (IC50) against p110α was 4400 nM; on p110β, 21000 nM; against p110γ, 30000 nM; on p110δ it was 28000 nM. Also, the “effect of substitution on PI3Kα potency/selectivity (in words)” value on p110α was “impaired potency”.
`CCN(/N=C/c1cnc2ccc(Br)cn12)S(=O)(=O)c1ccccc1C` [J40]: the IC50 on p110α was 20000 nM; at p110β, 61000 nM; at p110γ, 180000 nM; on p110δ, 53000 nM. Besides, the “drop/decrease in inhibitory activity for PI3Kα” value at p110α (compared to J32) is given as above 1333 fold.
With `CCN(/N=C/c1cnc2ccc(Br)cn12)S(=O)(=O)c1cc([N+](=O)[O-])c(NC(C)C(=O)O)cc1C` (stereo not drawn) [J160], the IC50 on p110α worked out at 11 nM; at p110β, 8200 nM; against p110γ, 140 nM; at p110δ, 230 nM.
Consider `CCN(/N=C/c1cnc2ccc(Br)cn12)S(=O)(=O)c1cc([N+](=O)[O-])c(NCCOCCO)cc1C` [J158], for which the IC50 against p110α stood at 17 nM; at p110β, 3500 nM; on p110γ, 200 nM; against p110δ, 440 nM. For the same compound, the “effect of substitution on PI3Kα potency/selectivity (in words)” value at p110α is recorded as “did not impact the inhibitory activity for PI3Kα substantially”.
Turning to `Cc1ccc([N+](=O)[O-])cc1S(=O)(=O)N(C)/N=C/c1cnc2ccc(Br)cn12` [J27, N'-[(1E)-(6-Bromoimidazo [1,2-a]pyridin-3-yl)methylene]-N,2-dimethyl-5-nitrobenzenesulfonohydrazide hydrochloride, reference compound], at p110γ, the half-inhibitory concentration (IC50) amounted to 75 nM.

The values above are taken from paper PMC3004370, “PI3Kα Inhibitors That Inhibit Metastasis” (Oncotarget, 2010).
